Measurements as given in patent US11970483B2, “Heterocyclic compound” (Takeda Pharmaceutical Company Limited, priority 2018, dated 2024).

Legend:
MDR1 = target: T1, MDR1 (Homo sapiens, UniProt P08183); experiment: MDR1 membrane permeability test; format: in vitro ADME; details: human MDR1-expressing LLC-PK1 cells, 10 μmol/L test compound, pH 7.4, read-out: Efflux ratio (ER)
T1 construct: expressed in transfected cells; host or cells: LLC-PK1 cells (porcine kidney)
Method: MDR1 membrane permeability test
When MDR1 is expressed in excess in LLC-PK1 cell, which is a polar cell, MDR1 is localized in apical membrane (A), thus promoting transcellular transport from the basement membrane side (B) toward direction A. When a ratio to the transcellular transport in the opposite direction is taken and a ratio to a control cell in which a mock vector has been introduced is further taken, an efflux ratio of MDR1 to simple diffusion (corrected efflux ratio) is calculated. Similarly, when a brain/plasma concentration ratio in Mdr1(−/−) mouse is divided by a brain/plasma concentration ratio in wild-type mouse, an efflux ratio of Mdr1 to simple diffusion in blood-brain barrier (BBB) (Kp, brain ratio, higher value means lower central nervous system permeability) is calculated. Adachi Y. et al. (Reference 1) has reported a positive correlation between corrected efflux ratio and Kp, brain ratio (FIG. 5(C)), and efflux ratio in MDR1 expressing cell and Kp, brain ratio (FIG. 5(B)).
To confirm the central nervous system permeability of the compounds of the present invention, a MDR1 membrane permeability test was performed by the following method.
Digoxin and lucifer yellow (LY) were purchased from Sigma-Aldrich, Diclofenac, colchicine and alprenolol were purchased from Wako Pure Chemical Industries, Ltd., and other reagents used were commercially available products of special grade.
Human MDR1-expressing LLC-PK1 cells were cultured according to the report of Takeuchi et al. (Reference 2). Human MDR1-expressing LLC-PK1 cells were cultured in 10% fetal bovine serum (Invitrogen), 500 μg/ml G418 (Invitrogen), 150 ng/ml colchicine-containing M199 medium (Invitrogen) under 5% CO2 conditions at 37° C.
Transcellular transport was performed according to the report of Sugimoto et al. (Reference 3). The cells were cultured for 3 days on HTS Transwell (registered trademark) 96 well permeable support (pore size 0.4 μm, 0.143 cm^2 surface area, Corning Life Sciences) having polyethylene terephthalate membrane on which the cells had been seeded at 3.45×10^4 cells/well. […] After 1 hr, the sample was collected from the side opposite to the side where the drug solution was added, and the concentration of the test compound was measured by LC-MS/MS. […]
LY was measured by a fluorescence plate reader (Fluoroskan Ascent FL).
Papp, A to B and Papp, B to A (apparent permeability) were calculated from the formula (1), and the efflux ratio (ER) was calculated from the formula (2). […]

Male SD rats = experiment: Rat defecation experiment; format: in vivo; details: oral, mean±standard error
Method: Rat Defecation Experiment
Male SD rats (5-6 weeks old) were used after an acclimation period for about 1 week. A test drug (1 mg/kg or 3 mg/kg) was suspended in 0.5% methylcellulose solution and orally administered at a volume of 5 mL/kg, and the number of feces 2 hr later was counted. Only 0.5% methylcellulose was administered to a solvent administration group.

T1 sequence (P08183 whole entry): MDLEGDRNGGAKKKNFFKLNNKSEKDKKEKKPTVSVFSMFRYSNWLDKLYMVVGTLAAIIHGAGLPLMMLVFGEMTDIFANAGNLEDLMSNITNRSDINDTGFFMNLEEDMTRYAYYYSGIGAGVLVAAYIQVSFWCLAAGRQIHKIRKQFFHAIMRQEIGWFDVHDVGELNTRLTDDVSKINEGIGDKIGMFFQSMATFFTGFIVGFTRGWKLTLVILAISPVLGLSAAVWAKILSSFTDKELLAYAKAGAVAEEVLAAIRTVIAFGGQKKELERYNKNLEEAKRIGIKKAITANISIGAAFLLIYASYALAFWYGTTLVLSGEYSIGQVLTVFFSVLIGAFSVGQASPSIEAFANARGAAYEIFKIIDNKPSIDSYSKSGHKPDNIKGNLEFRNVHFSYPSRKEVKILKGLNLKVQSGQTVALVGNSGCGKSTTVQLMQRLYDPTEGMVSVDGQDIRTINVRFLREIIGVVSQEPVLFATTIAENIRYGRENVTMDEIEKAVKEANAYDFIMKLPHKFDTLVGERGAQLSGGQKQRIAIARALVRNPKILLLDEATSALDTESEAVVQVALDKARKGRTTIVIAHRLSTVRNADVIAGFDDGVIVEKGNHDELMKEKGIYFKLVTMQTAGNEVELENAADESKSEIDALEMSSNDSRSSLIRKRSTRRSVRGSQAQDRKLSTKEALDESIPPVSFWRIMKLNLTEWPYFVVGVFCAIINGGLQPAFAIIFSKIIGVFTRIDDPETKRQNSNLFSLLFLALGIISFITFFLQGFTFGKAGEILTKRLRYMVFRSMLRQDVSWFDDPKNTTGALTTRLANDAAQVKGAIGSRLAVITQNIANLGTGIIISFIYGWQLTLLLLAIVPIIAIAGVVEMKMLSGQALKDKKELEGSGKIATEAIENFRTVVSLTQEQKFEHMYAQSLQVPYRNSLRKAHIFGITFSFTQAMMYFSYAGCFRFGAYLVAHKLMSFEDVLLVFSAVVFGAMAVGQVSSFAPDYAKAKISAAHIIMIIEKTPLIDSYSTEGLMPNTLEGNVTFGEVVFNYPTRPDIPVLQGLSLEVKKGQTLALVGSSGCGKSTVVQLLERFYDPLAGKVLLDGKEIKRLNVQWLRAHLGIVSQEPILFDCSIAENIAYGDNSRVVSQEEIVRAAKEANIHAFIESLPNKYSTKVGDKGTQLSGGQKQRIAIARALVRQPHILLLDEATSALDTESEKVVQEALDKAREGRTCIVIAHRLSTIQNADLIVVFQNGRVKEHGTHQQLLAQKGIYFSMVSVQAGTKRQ

## Cc1c(Cc2ccc(-c3cn(C)nn3)cc2)cc(C(=O)N[C@H]2CCOC[C@@H]2O)c2c1CCO2 [Example 1, 1,5-anhydro-2,3-dideoxy-3-[(4-methyl-5-{[4-(1-methyl-1H-1,2,3-triazol-4-yl)phenyl]methyl}-2,3-dihydro-1-benzofuran-7-carbonyl)amino]-L-threo-pentitol]
MDR1
  efflux ratio at 1 h, 10 μmol/L: 3

## COCCNC(=O)c1ccc(Cc2cc(C(=O)N[C@H]3CCOC[C@@H]3O)c3c(c2C)CCO3)cc1F [Example 27, 1,5-anhydro-2,3-dideoxy-3-{[5-({3-fluoro-4-[(2-methoxyethyl)carbamoyl]phenyl}methyl)-4-methyl-2,3-dihydro-1-benzofuran-7-carbonyl]amino}-L-threo-pentitol]
MDR1
  efflux ratio at 1 h, 10 μmol/L: 6.2

## Cc1c(Cc2ccc(C(=O)NCC(=O)N(C)C)c(F)c2)cc(C(=O)N[C@H]2CCOC[C@@H]2O)c2c1CCO2 [Example 28, 1,5-anhydro-2,3-dideoxy-3-({5-[(4-{[2-(dimethylamino)-2-oxoethyl]carbamoyl}-3-fluorophenyl)methyl]-4-methyl-2,3-dihydro-1-benzofuran-7-carbonyl}amino)-L-threo-pentitol]
MDR1
  efflux ratio at 1 h, 10 μmol/L: 12
Male SD rats; 1 mg/kg
  number of feces 2 hr later: 8.0 ± 1.0
Male SD rats; 3 mg/kg
  number of feces 2 hr later: 8.1 ± 1.4

## Cc1c(Cc2ccc(C(=O)NC[C@H]3CCCO3)c(F)c2)cc(C(=O)N[C@H]2CCOC[C@@H]2O)c2c1CCO2 [Example 29, 1,5-anhydro-2,3-dideoxy-3-[(5-{[3-fluoro-4-({[(2R)-oxolan-2-yl]methyl}carbamoyl)phenyl]methyl}-4-methyl-2,3-dihydro-1-benzofuran-7-carbonyl)amino]-L-threo-pentitol]
MDR1
  efflux ratio at 1 h, 10 μmol/L: 6
Male SD rats; 1 mg/kg
  number of feces 2 hr later: 5.0 ± 0.8
Male SD rats; 3 mg/kg
  number of feces 2 hr later: 9.0 ± 0.7
